Assay [1] concerns the target T1, recombinant human B1 receptors (Homo sapiens, UniProt P46663).
T1 construct: host or cells: CHO (CHO-B1)
T1 sequence (P46663 1-353): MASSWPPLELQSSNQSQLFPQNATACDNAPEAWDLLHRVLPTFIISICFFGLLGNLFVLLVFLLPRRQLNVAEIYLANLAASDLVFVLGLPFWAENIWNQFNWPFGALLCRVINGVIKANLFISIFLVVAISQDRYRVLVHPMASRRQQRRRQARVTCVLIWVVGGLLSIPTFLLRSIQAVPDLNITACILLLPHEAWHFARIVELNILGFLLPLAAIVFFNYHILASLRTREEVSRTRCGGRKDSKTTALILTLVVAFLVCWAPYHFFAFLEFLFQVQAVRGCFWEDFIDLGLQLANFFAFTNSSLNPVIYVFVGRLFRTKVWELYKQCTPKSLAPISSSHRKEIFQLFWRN
The experiment in a line: Antagonist potency by measurement of cytosolic calcium ion concentration in CHO-B1 cells (agonist LysDABK). It is filed as cell-based. The conditions noted are these: inhibition of LysDABK (EC80)-evoked [Ca2+]i elevation, fluo-4, read-out: B1 func. Here is the method: Assessment of Antagonist Potency at B1 and B2 Receptors In Vitro by Measurement of Cytosolic Calcium Ion Concentration with a Plate Reader Fluorimeter in Cells Expressing Recombinant Human B1 or B2 Receptors
Chinese hamster ovary (CHO) cells stably expressing recombinant human B1 (CHO-B1, Euroscreen) or B2 (CHO-B2, Perkin-Elmer) receptors were cultured in Dulbecco's Modified Eagle's Medium (DMEM) containing 10% Fetal Calf Serum (FCS), 100 U/ml penicillin, 0.1 mg/ml streptomycin, 0.25 μg/ml amphotericin B, 1% Minimum Essential Medium Eagle (MEM), non essential amino acid solution, 600 μg/ml G418, 1% pyruvate (for the B2 cell line). Cells were kept at 37° C. in a humidified incubator in an atmosphere of 5% CO2/95% air and were passaged 1:4 three times a week. Cells were plated at 1.5-2.5×10^4 cell/well on standard 96-well microplates, measurements of cytosolic calcium ion concentration ([Ca^2+]i) were carried out 1-2 days after cell plating.
Measurements of [Ca^2+]i were carried out on CHO-B1 and CHO-B2 cells stably expressing human B1 and B2 receptors, respectively. Cells were grown in standard 96-well microplates and before the measurement were loaded with a fluorescent Ca^2+-sensitive dye, fluo-4/AM (2 μM): after removing the culture medium the dye was added to the cells (dissolved in assay buffer: 145 mM NaCl, 5 mM KCl, 2 mM MgCl2, 2 mM CaCl2, 10 mM HEPES, 20 mM D-glucose, 2 mM probenecid, 100 μl/well) and cells were incubated at 37° C. in a humidified incubator in an atmosphere of 5% CO2/95% air for 40-120 min. To stop dye loading cells were washed twice with assay buffer. After washing, various concentrations of the test compounds (diluted in extracellular medium from a DMSO stock solution, final DMSO concentration was <0.1%) or buffer were added to each well depending on the experimental setup. After incubation at 37° C. for 20-25 min. baseline and agonist-evoked changes of [Ca^2+]i were measured column by column with a plate reader fluorimeter (Fluoroskan Ascent, Labsystems). Excitation and detection of emission was carried out from the bottom of the plate. Filters used for Fluo-4: excitation filter −485 nm, emission filter −538 nm. The whole measurement process was performed at 37° C. and was controlled by custom software. Inhibitory potency of the test compounds was assessed by measuring the reduction in the agonist-evoked [Ca^2+]i-elevation in the presence of different concentrations of the compounds. The agonists were LysDABK for CHO-B1, and bradykinin for CHO-B2 cells. Agonists were applied at an EC80 concentration, the EC80-values were derived from daily determined dose-response curves. Fluorescence data were expressed as ΔF/F (fluorescence change normalized to baseline). All treatments on a single plate were measured in multiple wells. Data from all wells with the same treatment were averaged and the average values were used for analysis. Inhibitory potency of a compound at a single concentration point was expressed as percent inhibition of the control agonist response. Sigmoidal concentration-inhibition curves were fitted to the data (derived from at least three independent experiments) and IC50-values were determined as the concentration that produces half of the maximal inhibition caused by the compound.

Assay [2] has as its target T2, human recombinant bradykinin1 receptors (Homo sapiens, UniProt P46663).
T2 construct: host or cells: CHO cells
T2 sequence (P46663 1-353): T1 sequence (P46663 1-353)
The experiment in a line: Human recombinant bradykinin B1 receptor binding. The conditions noted are these: CHO cell membranes, [3H]-[Des-Arg10] Kallidin radioligand. As for the experimental part:
Receptor Binding Assays 1. Human Recombinant Bradykinin B1 Receptor Binding
Binding assays were carried out on human recombinant bradykinin1 receptors (expressed in CHO cells) according to the Euroscreen Technical Data Sheet (Cat. No.: ES-091). 20 μg protein/tube was incubated with [3,4-prolyl-3,4-^3H(N)]-[Des-Arg^10] Kallidin as radioligand. Non specific binding was determined in the presence of 10 μM Lys-des-Arg^9-Bradykinin. The final incubation volume was 250 μl. Samples were incubated for 15 min. at 25° C. then were rapidly vacuum filtered through GF/B filters presoaked for at least 1 h in 0.5% PEI. Radioactivity was determined by liquid scintillation spectroscopy.

Counter-ions that a name gives are not always drawn.

On to `CCCN1C(=O)C(NC(=O)Nc2ccc(N3CCC(N4CCCCC4)CC3)cc2)N=C(c2ccc(C)cc2)c2ccccc21` (racemic) [Example 70004387, (±)-N-[4-(1,4′-bipiperidin)-1′-yl-phenyl]-N′-[2,3-dihydro-5-(4-methyl-phenyl)-2-oxo-1-propyl-1H-1,4-benzodiazepin-3-yl]-urea, reference compound], for which the IC50 in assay [1] is 100 to 500 nM. The inhibition constant Ki in assay [2] is under 100 nM.

In the case of `O=C(CC1c2ccccc2-c2ccccc2N1S(=O)(=O)c1ccc(Cl)c(Cl)c1)Nc1ccc(N2CCC(N3CCCCC3)CC2)cc1` (stereo not shown) [Example 8, N-(4-[1,4′]Bipiperidinyl-1-yl-phenyl)-2-[5-(3,4-dichloro-benzenesulfonyl)-5,6-dihydro-phenanthridin-6-yl]-acetamide], the IC50 in assay [1] is 100 to 500 nM. Moreover, the inhibitory constant (Ki) in assay [2] was under 100 nM.

`O=C(CC1c2ccccc2-c2ccccc2N1S(=O)(=O)c1ccc(Cl)c(Cl)c1)NCCCN1CCN(c2ccncc2)CC1` (stereo not shown) [Example 9, 2-[5-(3,4-Dichloro-benzenesulfonyl)-5,6-dihydro-phenanthridin-6-yl]-N-[3-(4-pyridin-4-yl-piperazin-1-yl)-propyl]-acetamide]: in assay [1], the IC50 is under 100 nM. In assay [2], the inhibitory constant (Ki) was under 100 nM.

On to `Cc1ccc(S(=O)(=O)N2c3ccccc3-c3ccccc3C2CC(=O)NCCc2ccc(C3=NCCN3)cc2)cc1` (stereo not shown) [Example 14, N-{2-[4-(4,5-Dihydro-1H-imidazol-2-yl)-phenyl]-ethyl}-2-[5-(toluene-4-sulfonyl)-5,6-dihydro-phenanthridin-6-yl]-acetamide hydrochloride], for which the IC50 in assay [1] was under 100 nM. Also, the Ki in assay [2] was under 100 nM.

In the case of `COc1cccc2c1-c1ccccc1N(S(=O)(=O)c1ccc(Cl)c(Cl)c1)C2CC(=O)N[C@H]1CC[C@H](CCN2CCCC2)CC1` (stereo partly drawn) [Example 21, trans-2-[5-(3,4-Dichloro-benzenesulfonyl)-10-methoxy-5,6-dihydro-phenanthridine-6-yl]-N-[4-(2-pyrrolidin-1-ylethyl)-cyclohexyl]-acetamide], the IC50 in assay [1] is under 100 nM. The Ki in assay [2] is under 100 nM.

`N=C(N)c1ccc(CCNC(=O)CC2c3ccccc3-c3ccccc3N2S(=O)(=O)c2ccc(Cl)c(Cl)c2)cc1` (stereo not shown) [Example 20, N-[2-(4-Carbamimidoyl-phenyl)-ethyl]-2-[5-(3,4-dichloro-benzenesulfonyl)-5,6-dihydro-phenanthridin-6-yl]-acetamide]: the IC50 in assay [1] was under 100 nM. Further, the Ki in assay [2] was under 100 nM.

`O=C(CC1c2cc(F)ccc2-c2ccccc2N1S(=O)(=O)c1ccc(Cl)c(Cl)c1)NCCc1ccc(C2=NCCN2)cc1` (stereo not shown) [Example 1, 2-[5-(3,4-Dichloro-benzenesulfonyl)-8-fluoro-5,6-dihydro-phenanthridin-6-yl]-N-{2-[4-(4,5-dihydro-1H-imidazol-2-yl)-phenyl]-ethyl}-acetamide hydrochloride]: the IC50 in assay [1] was under 100 nM. For the same molecule, the Ki in assay [2] is under 100 nM.

`O=C(CC1c2ccccc2-c2ccccc2N1S(=O)(=O)c1ccc(Cl)c(Cl)c1)NCCN1CCN(c2ccncc2)CC1` (stereo not shown) [Example 3]: the IC50 in assay [1] was under 100 nM. Moreover, in assay [2], the Ki was under 100 nM.

As to `O=C(CC1c2ccccc2-c2ccccc2N1S(=O)(=O)c1ccc(Cl)c(Cl)c1)N1CCC(Cc2ccc(C3=NCCN3)cc2)CC1` (stereo not shown) [Example 5, 2-[5-(3,4-Dichloro-benzenesulfonyl)-5,6-dihydro-phenanthridin-6-yl]-1-{4-[4-(4,5-dihydro-1H-imidazol-2-yl)-benzyl]-piperidin-1-yl}-ethanone], the IC50 in assay [1] was under 100 nM. For the same molecule, in assay [2], the inhibition constant Ki is under 100 nM.

With `Cc1cc(C)c(S(=O)(=O)N2c3ccccc3-c3ccccc3C2CC(=O)NCCc2ccc(C3=NCCN3)cc2)c(C)c1` (stereo not shown) [Example 15, N-{2-[4-(4,5-Dihydro-1H-imidazol-2-yl)-phenyl]-ethyl}-2-[5-(2,4,6-trimethyl-benzenesulfonyl)-5,6-dihydro-phenanthridin-6-yl]-acetamide hydrochloride], the IC50 in assay [1] was under 100 nM. For the same molecule, the Ki in assay [2] was under 100 nM.

As for `O=C(C[C@@H]1C(=O)Nc2ccccc2N1S(=O)(=O)c1ccc(Cl)c(Cl)c1)NCCc1ccc(C2=NCCN2)cc1` [Example 70004287, 2-[1-(3,4-dichloro-benzenesulfonyl)-3-oxo-1,2,3,4-tetrahydroquinoxalin-2(R)-yl]-N-{2-[4-(4,5-dihydro-1H-imidazol-2-yl)-phenyl]-ethyl}-acetamide, reference compound], the IC50 in assay [1] is under 100 nM. In addition, in assay [2], the Ki was under 100 nM.

By Ki is commonly meant a measure of affinity in units of concentration, obtained from inhibition or displacement.
